Test results published in patent publication US8598206B2, “Trypsin-like serine protease inhibitors, and their preparation and use” (The Medicines Company (Leipzig) GmbH, priority 2010, dated 2013).
pKi: −log10 of the molar value.

Experiments:
Type in all cases: biochemical
human urinary kallikrein = human urinary kallikrein (Homo sapiens (Human), UniProt P06870); assay: Inhibition of human urinary kallikrein; conditions: S-2266 substrate; read-out: h uKK Ki
Method: (§1) The inhibitory effect for the individual enzymes was determined in analogy to a previously disclosed method (Stürzebecher et al., J. Med. Chem., 40, 3091-3099 (1997)).
(§2) 200 μl of TBS (0.05 M trishydroxymethylaminomethane; 0.154 M NaCl, 2% ethanol, pH 8.0)
(§3) 2 μL of a test compound solution in 50% v/v DMSO/water
(§4) For zero order kinetics, the reaction was stopped after 20 min by adding 15 μl of acetic acid (80% v/v), and the absorption at 405 nm was determined using a Microplate Reader (Multiscan Ascent™, from Thermo). In the case of pseudo-first order kinetics, the reaction rates in the equilibrium state were determined by continuously recording the change in absorbance at 405 nm. The Ki values were calculated by parameter fitting in accordance with the rate equation for competitive inhibition using the GraFit software, version 4. The Ki values are the average of at least three determinations.

[1] = target: human activated C1r complement component (Homo sapiens (Human), UniProt P00736); assay: Inhibition of human C1r; conditions: S2314 substrate; read-out: h C1r Ki
Chain of human activated C1r complement component (P00736 464-705): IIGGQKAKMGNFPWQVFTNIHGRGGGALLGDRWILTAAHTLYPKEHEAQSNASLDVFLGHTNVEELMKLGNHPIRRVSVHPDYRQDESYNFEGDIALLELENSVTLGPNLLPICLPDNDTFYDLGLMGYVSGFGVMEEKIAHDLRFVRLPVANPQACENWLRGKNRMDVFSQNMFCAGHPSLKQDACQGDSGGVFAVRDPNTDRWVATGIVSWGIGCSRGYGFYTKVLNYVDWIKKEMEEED
Chain of human activated C1r complement component (P00736 18-463 partner): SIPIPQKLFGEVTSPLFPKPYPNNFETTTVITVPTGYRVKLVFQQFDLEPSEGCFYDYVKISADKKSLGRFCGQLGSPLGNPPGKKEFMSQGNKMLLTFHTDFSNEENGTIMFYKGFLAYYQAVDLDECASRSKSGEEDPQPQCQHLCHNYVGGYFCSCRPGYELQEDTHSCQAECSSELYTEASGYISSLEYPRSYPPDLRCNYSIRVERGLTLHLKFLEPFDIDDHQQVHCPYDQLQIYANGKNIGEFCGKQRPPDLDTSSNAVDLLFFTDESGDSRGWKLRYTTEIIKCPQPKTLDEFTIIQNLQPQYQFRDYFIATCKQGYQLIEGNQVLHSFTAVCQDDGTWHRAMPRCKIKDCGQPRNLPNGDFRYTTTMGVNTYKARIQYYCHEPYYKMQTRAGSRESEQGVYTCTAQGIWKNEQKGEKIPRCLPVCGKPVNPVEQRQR
Method: as §1, §2, §3, §4

plasma kallikrein = plasma kallikrein (Homo sapiens (Human), UniProt P03952); assay: Determination of inhibition constants for human plasma kallikrein (chromogenic substrate); conditions: 25° C., S2302 substrate; read-out: h PK Ki
Chain of plasma kallikrein (P03952 391-638): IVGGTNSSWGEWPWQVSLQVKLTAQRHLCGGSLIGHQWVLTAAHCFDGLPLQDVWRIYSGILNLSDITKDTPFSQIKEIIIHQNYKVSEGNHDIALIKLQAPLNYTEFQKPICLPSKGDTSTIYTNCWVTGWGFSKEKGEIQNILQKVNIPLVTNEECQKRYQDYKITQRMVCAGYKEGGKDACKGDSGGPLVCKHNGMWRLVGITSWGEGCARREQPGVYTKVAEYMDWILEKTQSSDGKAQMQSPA
Chain of plasma kallikrein (P03952 20-390 partner): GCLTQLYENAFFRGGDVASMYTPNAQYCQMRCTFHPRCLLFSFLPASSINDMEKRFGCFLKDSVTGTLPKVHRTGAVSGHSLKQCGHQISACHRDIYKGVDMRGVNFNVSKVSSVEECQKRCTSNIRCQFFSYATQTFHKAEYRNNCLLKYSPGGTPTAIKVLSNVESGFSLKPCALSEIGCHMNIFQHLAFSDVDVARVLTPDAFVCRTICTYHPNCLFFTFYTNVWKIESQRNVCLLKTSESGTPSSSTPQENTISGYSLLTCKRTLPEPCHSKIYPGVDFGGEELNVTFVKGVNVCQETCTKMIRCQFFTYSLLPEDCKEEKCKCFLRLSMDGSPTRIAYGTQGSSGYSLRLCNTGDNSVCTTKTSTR
Method: (§5) Determination of the Inhibition Constants for Human Plasmin (h Plasmin) and Human Plasma Kallikrein (h PK)
as §1, §2
(§6) 25 μl of substrate (4 mM, 2 mM and 1 mM tosyl-Gly-Pro-Lys-pNA=Chromozym PL from LOXO for plasmin and 3 mM, 1.5 mM and 1 mM H-D-Pro-Phe-Arg-pNA=S2302 from Chromogenix for PK, dissolved in H2O)
as §3
(§7) 50 μl of enzyme solution (plasmin from Calbiochem: 1.7 mU/ml in 0.154 M NaCl+0.1% BSA m/v; plasma kallikrein from Enzyme Research Lab.: 62 ng/ml in 0.154 M NaCl+0.1% BSA m/v)
as §4

human alpha-thrombin = human alpha-thrombin (Homo sapiens (Human), UniProt P00734); assay: Inhibition of human Factor IIa; conditions: Pefachrome tPA substrate; read-out: h FIIa Ki
Method: as §1, §2, §3, §4

[2] = target: human activated C1s complement component (Homo sapiens (Human), UniProt P09871); assay: Inhibition of human C1s; conditions: S2314 substrate; read-out: h C1s Ki
Method: as §1, §2, §3, §4
Subcomponent “s” of Human Complement Component 1 (h C1s): Inhibition of human C1s was determined by the method described in [0092]-[0098] using native human activated C1s complement component from Calbiochem at 29 nM and Val-Ser-Arg-pNA (S2314) at 8 mM, 6 mM, and 4 mM as substrate; results are reported as Ki values (nanomolar).

human alpha-FXIIa = human alpha-FXIIa (Homo sapiens (Human), UniProt P00748); assay: Inhibition of human alpha-Factor XIIa; conditions: CHA-Gly-Arg-pNA substrate; read-out: h FXIIa Ki
Chain of human alpha-FXIIa (P00748 373-615): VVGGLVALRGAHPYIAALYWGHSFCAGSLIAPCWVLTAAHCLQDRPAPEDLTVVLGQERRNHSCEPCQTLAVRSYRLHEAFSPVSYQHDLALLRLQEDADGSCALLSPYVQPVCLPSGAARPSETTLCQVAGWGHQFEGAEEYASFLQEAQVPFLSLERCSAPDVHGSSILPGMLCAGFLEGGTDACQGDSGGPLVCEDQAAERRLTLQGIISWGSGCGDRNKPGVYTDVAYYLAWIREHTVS
Chain of human alpha-FXIIa (P00748 20-372 partner): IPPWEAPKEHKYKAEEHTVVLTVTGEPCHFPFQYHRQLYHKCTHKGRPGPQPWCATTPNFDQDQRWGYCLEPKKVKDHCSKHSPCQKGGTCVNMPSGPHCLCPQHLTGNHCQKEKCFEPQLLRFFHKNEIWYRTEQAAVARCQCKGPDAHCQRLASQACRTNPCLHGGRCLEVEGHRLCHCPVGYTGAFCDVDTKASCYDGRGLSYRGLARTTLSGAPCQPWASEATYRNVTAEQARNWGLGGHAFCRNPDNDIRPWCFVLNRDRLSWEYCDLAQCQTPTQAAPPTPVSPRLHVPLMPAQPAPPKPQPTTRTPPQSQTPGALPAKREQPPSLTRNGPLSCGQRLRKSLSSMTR
Method: as §1, §2, §3, §4

[3] = target: human activated protein C (Homo sapiens (Human), UniProt P04070); assay: Inhibition of human activated protein C; conditions: Pefachrome PCa substrate; read-out: h aPC Ki
Chain of human activated protein C (P04070 212-450): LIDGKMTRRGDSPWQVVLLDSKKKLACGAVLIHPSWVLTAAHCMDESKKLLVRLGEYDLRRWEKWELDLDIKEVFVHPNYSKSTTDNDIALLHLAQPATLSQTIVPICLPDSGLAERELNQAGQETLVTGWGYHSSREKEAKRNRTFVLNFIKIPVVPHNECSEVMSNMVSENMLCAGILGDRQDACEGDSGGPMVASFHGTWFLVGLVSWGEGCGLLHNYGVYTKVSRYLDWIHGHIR
Chain of human activated protein C (P04070 43-197 partner): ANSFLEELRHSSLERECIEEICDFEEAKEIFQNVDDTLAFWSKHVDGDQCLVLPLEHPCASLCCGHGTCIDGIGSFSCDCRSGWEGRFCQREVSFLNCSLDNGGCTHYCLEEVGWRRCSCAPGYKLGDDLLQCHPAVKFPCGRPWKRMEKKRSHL
Method: as §1, §2, §3, §4

human t-PA = human t-PA (Homo sapiens (Human), UniProt P00750); assay: Inhibition of human tissue-type plasminogen activator; conditions: Pefachrome tPA substrate; read-out: h t-PA Ki
Chain of human t-PA (P00750 36-562): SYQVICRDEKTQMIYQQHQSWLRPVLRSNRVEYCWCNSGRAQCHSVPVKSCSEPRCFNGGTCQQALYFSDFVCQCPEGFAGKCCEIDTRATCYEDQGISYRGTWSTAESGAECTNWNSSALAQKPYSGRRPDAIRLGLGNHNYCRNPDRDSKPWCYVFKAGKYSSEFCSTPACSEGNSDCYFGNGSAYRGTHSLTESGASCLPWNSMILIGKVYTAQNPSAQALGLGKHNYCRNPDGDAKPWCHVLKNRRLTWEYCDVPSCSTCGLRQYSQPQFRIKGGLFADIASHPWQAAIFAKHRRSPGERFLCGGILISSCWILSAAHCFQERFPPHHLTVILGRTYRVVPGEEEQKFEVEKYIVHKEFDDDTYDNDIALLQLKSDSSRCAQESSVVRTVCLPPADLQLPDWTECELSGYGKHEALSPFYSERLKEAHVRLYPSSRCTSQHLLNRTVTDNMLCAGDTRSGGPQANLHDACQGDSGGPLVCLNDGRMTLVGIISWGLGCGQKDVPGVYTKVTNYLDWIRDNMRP
Method: as §1, §2, §3, §4

plasmin = plasmin (Homo sapiens (Human), UniProt P00747); assay: Determination of inhibition constants for human plasmin (chromogenic substrate); conditions: 25° C., Chromozym PL substrate; read-out: h plasmin Ki
Chain of plasmin (P00747 581-810): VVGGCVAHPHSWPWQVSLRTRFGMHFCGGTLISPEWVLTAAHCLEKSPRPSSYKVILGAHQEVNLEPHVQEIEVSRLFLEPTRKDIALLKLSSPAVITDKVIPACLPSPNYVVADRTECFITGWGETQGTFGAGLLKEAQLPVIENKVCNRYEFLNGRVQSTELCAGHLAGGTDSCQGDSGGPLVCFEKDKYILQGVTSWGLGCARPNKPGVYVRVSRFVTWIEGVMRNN
Chain of plasmin (P00747 97-580 partner): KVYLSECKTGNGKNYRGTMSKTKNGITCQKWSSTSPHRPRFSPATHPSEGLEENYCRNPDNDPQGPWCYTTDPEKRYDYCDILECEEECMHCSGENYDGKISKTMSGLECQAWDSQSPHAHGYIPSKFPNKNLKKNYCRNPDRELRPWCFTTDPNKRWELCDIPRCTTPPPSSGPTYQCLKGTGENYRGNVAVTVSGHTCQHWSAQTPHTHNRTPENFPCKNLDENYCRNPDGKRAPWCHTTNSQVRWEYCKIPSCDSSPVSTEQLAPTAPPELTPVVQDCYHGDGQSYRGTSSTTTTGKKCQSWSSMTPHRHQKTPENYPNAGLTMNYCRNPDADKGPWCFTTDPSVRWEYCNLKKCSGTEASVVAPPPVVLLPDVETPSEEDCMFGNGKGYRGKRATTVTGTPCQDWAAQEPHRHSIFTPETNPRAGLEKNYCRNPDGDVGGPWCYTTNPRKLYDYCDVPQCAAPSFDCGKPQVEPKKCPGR
Method: as §5, §1, §2, §6, §3, §7, §4

human Factor XIa = human Factor XIa (Homo sapiens (Human), UniProt P03951); assay: Inhibition of human Factor XIa; conditions: Pefachrome PCa substrate; read-out: h FXIa Ki
Chain of human Factor XIa (P03951 388-625): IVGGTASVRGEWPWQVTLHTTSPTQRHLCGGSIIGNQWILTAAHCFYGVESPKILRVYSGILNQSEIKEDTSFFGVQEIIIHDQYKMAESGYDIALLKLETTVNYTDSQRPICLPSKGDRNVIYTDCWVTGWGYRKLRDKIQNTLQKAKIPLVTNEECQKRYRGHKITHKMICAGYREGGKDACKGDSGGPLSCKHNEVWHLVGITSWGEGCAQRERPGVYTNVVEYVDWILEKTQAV
Chain of human Factor XIa (P03951 19-387 partner): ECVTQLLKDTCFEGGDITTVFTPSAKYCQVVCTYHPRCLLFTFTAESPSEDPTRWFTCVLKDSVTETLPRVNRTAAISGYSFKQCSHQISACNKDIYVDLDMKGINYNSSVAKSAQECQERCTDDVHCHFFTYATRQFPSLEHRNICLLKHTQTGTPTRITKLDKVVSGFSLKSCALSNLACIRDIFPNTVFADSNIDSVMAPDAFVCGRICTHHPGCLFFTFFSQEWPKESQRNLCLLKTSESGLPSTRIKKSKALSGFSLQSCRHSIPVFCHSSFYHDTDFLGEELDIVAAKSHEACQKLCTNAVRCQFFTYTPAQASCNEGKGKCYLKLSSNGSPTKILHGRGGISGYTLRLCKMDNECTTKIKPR
Method: as §1, §2, §3, §4

human Factor Xa = human Factor Xa (Homo sapiens (Human), UniProt P00742); assay: Inhibition of human Factor Xa; conditions: Pefachrome FXa substrate; read-out: h FXa Ki
Chain of human Factor Xa (P00742 235-488): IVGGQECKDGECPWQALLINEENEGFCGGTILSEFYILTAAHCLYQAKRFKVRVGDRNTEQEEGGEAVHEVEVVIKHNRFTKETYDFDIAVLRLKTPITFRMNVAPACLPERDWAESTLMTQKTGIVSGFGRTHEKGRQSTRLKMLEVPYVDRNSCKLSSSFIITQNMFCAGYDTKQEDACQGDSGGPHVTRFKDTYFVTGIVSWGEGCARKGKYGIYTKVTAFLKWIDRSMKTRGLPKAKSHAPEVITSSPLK
Chain of human Factor Xa (P00742 41-179 partner): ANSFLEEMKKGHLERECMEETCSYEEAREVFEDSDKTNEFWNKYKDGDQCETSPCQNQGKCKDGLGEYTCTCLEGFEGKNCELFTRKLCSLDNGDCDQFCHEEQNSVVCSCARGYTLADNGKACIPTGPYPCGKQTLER
Method: The inhibitory effect for the individual enzymes was determined in analogy to a previously disclosed method (Stürzebecher et al., J. Med. […] In the case of pseudo-first order kinetics, the reaction rates in the equilibrium state were determined by continuously recording the change in absorbance at 405 nm. […] The Ki values are the average of at least three determinations. Human Factor Xa (h FXa): […]

Chain of human urinary kallikrein (P06870 25-262): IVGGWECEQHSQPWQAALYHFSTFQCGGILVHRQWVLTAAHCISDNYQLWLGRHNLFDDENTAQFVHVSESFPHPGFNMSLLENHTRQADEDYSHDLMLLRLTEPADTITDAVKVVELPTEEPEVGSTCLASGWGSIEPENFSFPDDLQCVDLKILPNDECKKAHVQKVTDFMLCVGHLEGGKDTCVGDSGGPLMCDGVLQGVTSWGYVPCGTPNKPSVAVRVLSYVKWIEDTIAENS

Row | pKi (human urinary kallikrein) | pKi [1] | pKi (plasma kallikrein) | pKi (human alpha-thrombin) | pKi [2] | pKi (human alpha-FXIIa) | pKi [3] | pKi (human t-PA) | pKi (plasmin) | pKi (human Factor XIa) | pKi (human Factor Xa) | Structure (SMILES)
1 | < 4.10 | < 4.30 | 8.57 | 5.92 | 5.31 | 5.82 | 6.22 | 5.64 | 9.40 | 6.30 | 6.07 | N=C(N)c1ccc(CNC(=O)[C@H](CCC2CCNCC2)NC(=O)[C@@H](CCCc2ccncc2)NS(=O)(=O)Cc2ccccc2)cc1
2 | < 4.22 | < 4.46 | 9.05 | 5.25 | < 4.60 | 6.19 | 5.92 | 5.29 | 9.10 | 6.14 | 5.64 | CCC(=O)N1CCC(CC[C@@H](NS(=O)(=O)Cc2ccccc2)C(=O)N[C@@H](CCC2CCNCC2)C(=O)NCc2ccc(C(=N)N)cc2)CC1
3 | < 4.30 | < 4.30 | 8.12 | 6.10 | 5.10 | – | 6.40 | – | 8.70 | 6.10 | 6.52 | N=C(N)c1ccc(CNC(=O)[C@H](CCC2CCNCC2)NC(=O)[C@@H](CCCC2CCNCC2)NS(=O)(=O)Cc2ccccc2)cc1
4 | < 3.30 | < 4.00 | 8.70 | 5.42 | 5.05 | 6.20 | 5.96 | 5.52 | 8.82 | 6.06 | 6.12 | CC(=O)N1CCC(CCC[C@@H](NS(=O)(=O)Cc2ccccc2)C(=O)N[C@@H](CCC2CCNCC2)C(=O)NCc2ccc(C(=N)N)cc2)CC1
5 | < 4.30 | – | 8.82 | 6.62 | < 5.30 | 5.52 | 6.26 | 5.77 | 9.60 | 6.87 | 5.96 | N=C(N)c1ccc(CNC(=O)[C@H](CCC2CCNCC2)NC(=O)[C@@H](CCCc2ccccc2)NS(=O)(=O)Cc2ccccc2)cc1
6 | < 4.00 | < 4.30 | 7.70 | 5.05 | 5.38 | – | 6.60 | – | 8.30 | 5.60 | 6.92 | N=C(N)c1ccc(CNC(=O)[C@H](CCC2CCNCC2)NC(=O)[C@@H](CCc2cc[n+]([O-])cc2)NS(=O)(=O)Cc2ccccc2)cc1
7 | < 4.00 | < 4.00 | 8.82 | 5.44 | 5.19 | 6.40 | 6.10 | – | 9.00 | 6.22 | 6.40 | COC(=O)N1CCC(CCC[C@@H](NS(=O)(=O)Cc2ccccc2)C(=O)N[C@@H](CCC2CCNCC2)C(=O)NCc2ccc(C(=N)N)cc2)CC1
8 | < 3.70 | < 4.70 | 8.05 | 5.41 | 5.70 | – | 7.57 | – | 8.82 | 6.30 | 7.70 | N=C(N)c1ccc(CNC(=O)[C@H](CCC2CCNCC2)NC(=O)[C@@H](CCc2ccncc2)NS(=O)(=O)Cc2ccccc2)cc1
9 | < 3.70 | – | 8.28 | 5.33 | < 5.00 | – | 5.89 | – | 8.10 | 5.85 | 5.62 | N=C(N)c1ccc(CNC(=O)[C@H](CCC2CCNCC2)NC(=O)[C@@H](CCCn2cnnn2)NS(=O)(=O)Cc2ccccc2)cc1
10 | < 4.70 | < 4.70 | 8.52 | 5.36 | 5.92 | – | 6.51 | – | 8.42 | 7.15 | 5.62 | N=C(N)c1ccc(CNC(=O)[C@H](CCC2CCNCC2)NC(=O)[C@@H](CCCc2ccccc2)NS(=O)(=O)Cc2cccc(C(=O)O)c2)cc1
11 | < 4.00 | < 4.00 | 8.12 | 5.38 | < 4.60 | – | 7.22 | – | 8.52 | 5.85 | 7.05 | N=C(N)c1ccc(CNC(=O)[C@H](CCC2CCNCC2)NC(=O)[C@@H](CCC2CCNCC2)NS(=O)(=O)Cc2ccccc2)cc1

Second part, the compound before the results:

Row | Structure (SMILES) | pKi (human urinary kallikrein) | pKi [1] | pKi (plasma kallikrein) | pKi (human alpha-thrombin) | pKi [2] | pKi (human alpha-FXIIa) | pKi [3] | pKi (human t-PA) | pKi (plasmin) | pKi (human Factor XIa) | pKi (human Factor Xa)
12 | CC(=O)N1CCC(CC[C@@H](NS(=O)(=O)Cc2ccccc2)C(=O)N[C@@H](CCC2CCNCC2)C(=O)NCc2ccc(C(=N)N)cc2)CC1 | < 4.70 | < 4.40 | 8.30 | 5.10 | < 4.70 | 6.28 | 5.92 | 5.32 | 8.74 | 5.85 | 5.72
13 | CNC(=O)N1CCC(CC[C@@H](NS(=O)(=O)Cc2ccccc2)C(=O)N[C@@H](CCC2CCNCC2)C(=O)NCc2ccc(C(=N)N)cc2)CC1 | < 3.70 | < 4.70 | 8.70 | 5.32 | < 4.70 | 6.26 | 5.96 | 5.28 | 9.00 | 5.89 | 5.77
14 | COC(=O)c1cccc(CS(=O)(=O)N[C@H](CCCc2ccccc2)C(=O)N[C@@H](CCC2CCNCC2)C(=O)NCc2ccc(C(=N)N)cc2)c1 | < 4.70 | < 4.52 | 8.03 | 6.04 | 5.32 | < 5.00 | 6.24 | 5.41 | 8.57 | 6.30 | 5.23
15 | N=C(N)c1ccc(CNC(=O)[C@H](CCC2CCNCC2)NC(=O)[C@@H](CCCc2cc[n+]([O-])cc2)NS(=O)(=O)Cc2ccccc2)cc1 [drawing 117] | < 3.70 | < 4.52 | 8.40 | 5.31 | 5.00 | 6.06 | 6.07 | 5.62 | 9.00 | 5.85 | 6.40
16 | COCC(=O)N1CCC(CC[C@@H](NS(=O)(=O)Cc2ccccc2)C(=O)N[C@@H](CCC2CCNCC2)C(=O)NCc2ccc(C(=N)N)cc2)CC1 | < 4.00 | < 4.30 | 8.89 | 5.35 | 4.70 | 6.17 | 5.92 | 5.33 | 8.92 | 5.85 | 5.80
17 | N=C(N)c1ccc(CNC(=O)[C@H](CCC2CCNCC2)NC(=O)[C@H](NS(=O)(=O)Cc2ccccc2)c2ccccc2)cc1 | – | – | 7.70 | 5.77 | – | – | 6.68 | – | 8.66 | 6.00 | 5.80
18 | COC(=O)N1CCC(CC[C@@H](NS(=O)(=O)Cc2ccccc2)C(=O)N[C@@H](CCC2CCNCC2)C(=O)NCc2ccc(C(=N)N)cc2)CC1 | < 3.70 | < 4.70 | 8.70 | 4.89 | < 5.00 | 5.80 | 5.87 | 5.18 | 9.15 | 6.14 | 5.70
19 | CC(C)C(=O)N1CCC(CC[C@@H](NS(=O)(=O)Cc2ccccc2)C(=O)N[C@@H](CCC2CCNCC2)C(=O)NCc2ccc(C(=N)N)cc2)CC1 | < 3.70 | < 4.52 | 8.82 | 4.89 | < 4.60 | 5.89 | 5.77 | 5.19 | 9.22 | 6.04 | 5.49
